Experimental findings from US20140256756A1, “PIPERIDINYL-SUBSTITUTED LACTAMS AS GPR119 MODULATORS” (Array BioPharma Inc., priority 2011, published 2014) are described below.

The assay concerns modified version of the GPR119 receptor (94% identity to human receptor). Nature of the assay: cAMP production assay (LANCE cAMP kit, TR-FRET) in HEK-293 cells. The format is cell-based. The settings on record: for cAMP production in HEK-293 cells: HEK-293 cells stably expressing modified GPR119, test compounds 0.2 nM to 10 μM, one-hour incubation; for Fold over baseline: increase in cAMP relative to basal levels, agonist activity if 1.5-fold or greater. The procedure, abridged: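 Agonist activity meant a 1.5-fold or greater cAMP rise over basal, with levels interpolated from a standard curve after TR-FRET competition read-out. HEK-293 cells with tetracycline-inducible modified GPR119 (1 μg/mL doxycycline overnight) were incubated one hour at ambient temperature with 0.2 nM to 10 μM compound, 0.5% DMSO.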
A general note: cAMP levels reflect the balance of adenylyl cyclase and phosphodiesterase activity.

Take `CS(=O)(=O)c1cc(F)c(N[C@H]2CCN(C3CCN(c4nc(C(F)(F)F)ns4)CC3)C2=O)c(F)c1` [Example 88, (S)-3-(2,6-difluoro-4-(methylsulfonyl)phenylamino)-1-(1-(3-(trifluoromethyl)-1,2,4-thiadiazol-5-yl)piperidin-4-yl)pyrrolidin-2-one]: the “cAMP production in HEK-293 cells” value turned out to be 11.8 nmol and the Fold over baseline is recorded as 3.0.

As to `CS(=O)(=O)c1cc(F)c(N[C@H]2CCN(C3CCN(c4nc(C(F)(F)F)ns4)CC3)C2=O)cc1F` [Example 89, (S)-3-(2,5-difluoro-4-(methylsulfonyl)phenylamino)-1-(1-(3-(trifluoromethyl)-1,2,4-thiadiazol-5-yl)piperidin-4-yl)pyrrolidin-2-one], the “cAMP production in HEK-293 cells” value was determined as 15.1 nmol and the Fold over baseline came to 3.8.

On to `CS(=O)(=O)c1ccc(N[C@H]2CCN(C3CCN(c4nc(C(F)(F)F)ns4)CC3)C2=O)c(F)c1` [Example 90, (S)-3-(2-fluoro-4-(methylsulfonyl)phenylamino)-1-(1-(3-(trifluoromethyl)-1,2,4-thiadiazol-5-yl)piperidin-4-yl)pyrrolidin-2-one], for which the “cAMP production in HEK-293 cells” value stood at 8.5 nmol and the Fold over baseline turned out to be 2.9.

Take `CS(=O)(=O)c1cc(F)c(O[C@H]2CCN(C3CCN(c4nc(C(F)(F)F)ns4)CC3)C2=O)cc1F` [Example 91, (S)-3-(2,5-difluoro-4-(methylsulfonyl)phenoxy)-1-(1-(3-(trifluoromethyl)-1,2,4-thiadiazol-5-yl)piperidin-4-yl)pyrrolidin-2-one]: the “cAMP production in HEK-293 cells” value is 25.6 nmol and the Fold over baseline came out at 5.4.

Turning to `CC(C)c1nsc(N2CCC(N3CCC(Cc4ccc(S(C)(=O)=O)cc4)C3=O)CC2)n1` (stereo not shown) [Example 92, 1-(1-(3-isopropyl-1,2,4-thiadiazol-5-yl)piperidin-4-yl)-3-(4-(methylsulfonyl)benzyl)pyrrolidin-2-one], the “cAMP production in HEK-293 cells” value was determined as 18.4 nmol and the Fold over baseline is 2.8.

As for `CS(=O)(=O)c1cc(F)c(O[C@H]2CCCN(C3CCN(c4nc(C(F)(F)F)ns4)CC3)C2=O)cc1F` [Example 93, (S)-3-(2,5-difluoro-4-(methylsulfonyl)phenoxy)-1′-(3-(trifluoromethyl)-1,2,4-thiadiazol-5-yl)-[1,4′-bipiperidin]-2-one], the “cAMP production in HEK-293 cells” value came to 9.0 nmol and the Fold over baseline came to 2.9.

Turning to `CC(C)c1nsc(N2CCC(N3CC[C@H](Oc4ccc(S(C)(=O)=O)nc4)C3=O)CC2)n1` [Example 94, (S)-1-(1-(3-isopropyl-1,2,4-thiadiazol-5-yl)piperidin-4-yl)-3-((6-(methylsulfonyl)pyridin-3-yl)oxy)pyrrolidin-2-one], the “cAMP production in HEK-293 cells” value turned out to be 28.1 nmol and the Fold over baseline is 4.0.

On to `CC(C)(C)n1nnc(N2CCC(N3CC[C@H](Oc4ccc(S(C)(=O)=O)cc4F)C3=O)CC2)n1` [Example 95, (S)-1-(1-(2-(tert-butyl)2H-tetrazol-5-yl)piperidin-4-yl)-3-(2-fluoro-4-(methylsulfonyl)phenoxy)pyrrolidin-2-one], for which the “cAMP production in HEK-293 cells” value came to 16.7 nmol and the Fold over baseline is 3.4.

In the case of `CS(=O)(=O)c1cc(F)c(O[C@H]2CCN(C3CCN(c4nnc(C(F)(F)F)s4)CC3)C2=O)cc1F` [Example 96, (S)-3-(2,5-difluoro-4-(methylsulfonyl)phenoxy)-1-(1-(5-(trifluoromethyl)-1,3,4-thiadiazol-2-yl)piperidin-4-yl)pyrrolidin-2-one], the “cAMP production in HEK-293 cells” value came out at 14.2 nmol and the Fold over baseline is recorded as 3.1.

Regarding `CS(=O)(=O)c1cc(F)c(O[C@H]2CCN(C3CCN(c4cnc(C(F)(F)F)o4)CC3)C2=O)cc1F` [Example 97, (S)-3-(2,5-difluoro-4-(methylsulfonyl)phenoxy)-1-(1-(2-(trifluoromethyl)oxazol-5-yl)piperidin-4-yl)pyrrolidin-2-one], the “cAMP production in HEK-293 cells” value was 19.0 nmol and the Fold over baseline is reported as 4.1.

As to `CS(=O)(=O)c1cc(F)c(O[C@H]2CCN(C3CCN(c4cnc(C(F)(F)F)s4)CC3)C2=O)cc1F` [Example 98, (S)-3-(2,5-difluoro-4-(methylsulfonyl)phenoxy)-1-(1-(2-(trifluoromethyl)thiazol-5-yl)piperidin-4-yl)pyrrolidin-2-one], the “cAMP production in HEK-293 cells” value stood at 23.7 nmol and the Fold over baseline was determined as 5.4.
